{"source": "paper PMC9026148", "about": "“Pre-Clinical Study Evaluating Novel Protein Phosphatase 2A Activators as Therapeutics for Neuroblastoma” (Cancers, 2022)", "key": {"CYP-3A4": {"target": "T1, CYP-3A4 (Homo sapiens, UniProt P08684)", "T1 construct": "tissue Bioduro, LLC (contract lab that ran the assay); host or cells: human liver microsomes", "T1 sequence (P08684 whole entry)": "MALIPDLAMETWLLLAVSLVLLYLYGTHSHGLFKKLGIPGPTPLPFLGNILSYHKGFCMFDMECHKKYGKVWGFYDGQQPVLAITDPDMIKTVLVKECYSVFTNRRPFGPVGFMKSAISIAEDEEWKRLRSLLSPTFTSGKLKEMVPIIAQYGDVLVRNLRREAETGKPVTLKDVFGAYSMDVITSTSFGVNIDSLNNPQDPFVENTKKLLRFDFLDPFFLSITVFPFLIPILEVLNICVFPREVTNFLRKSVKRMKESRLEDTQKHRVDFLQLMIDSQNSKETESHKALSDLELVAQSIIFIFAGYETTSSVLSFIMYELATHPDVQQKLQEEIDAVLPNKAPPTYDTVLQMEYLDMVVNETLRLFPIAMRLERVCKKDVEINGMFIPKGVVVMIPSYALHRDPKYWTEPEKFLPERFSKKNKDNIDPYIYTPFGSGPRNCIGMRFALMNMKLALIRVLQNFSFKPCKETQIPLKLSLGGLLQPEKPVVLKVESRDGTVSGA", "assay": "Time-dependent CYP-3A4 inhibition (midazolam turnover, human liver microsomes)", "format": "in vitro ADME", "conditions": "for IC50: 50% inhibition of midazolam turnover", "description": "Time-dependent CYP-3A4 inhibition assays were performed by Bioduro, LLC. In brief, the test compound is pre-incubated with human liver microsomes (0.25 mg/mL in reaction) and NADPH (0.5 mM in reaction) for 5, 30, and 60 min to allow metabolite formation. Midazolam, a known standard substrate of CYP-3A4, is added to give 2.5 µM reaction concentration, and consumption (microsome stability) of midazolam is assayed as above."}, "SK-N-BE(2) cells": {"test_system": "SK-N-BE(2) cells", "assay": "CellTiter 96 proliferation, SK-N-BE(2)", "format": "cell-based", "conditions": "Homo sapiens, SKNBE2, 24 h", "description": "CellTiter 96® Aqueous One Solution Cell Proliferation assay (Promega, Madison, WI, USA) was used to examine proliferation, and alamarBlue® assay (Thermo Fisher Scientific, Inc.) was used to evaluate viability. Cells, concentrations ranging from 5 × 10^3 to 1.5 × 10^4, depending on cell type due to wide variation in growth characteristics between established cell lines and PDX cells, were plated in 96-well plates and treated with increasing doses of 792 or 1154 for 24 h. CellTiter 96® or alamarBlue® dye (10 µL) was added for proliferation and viability assays, respectively. A microplate reader (Epoch Microplate Spectrophotometer, BioTek Instruments, Winooski, VT) measured absorbance at 490 nm for CellTiter 96® and at 570 nm for alamarBlue®, using 600 nm as a reference. […] Experiments were completed with at least three biologic replicates, and data reported as fold change ± SEM. […]\nSupplemental Table S1: Neuroblastoma cells had the highest sensitivity to 792 and 1154.\n(A) SK-N-AS and (B) SK-N-BE(2) cells (1.5 x 104) were plated in 96-well plates and treated with increasing doses of nine PP2A activating compounds for 24 hours. Compounds 792 and 1154 had the lowest LD50s of the nine compounds investigated in both cell lines.\nSupplemental Figure S4: SK-N-AS cells were treated with FTY720 (0, 5 μM), 792 (10 μM), or 1154 (10 μM) for 24 hours and PP2A activity was measured. […]"}, "SH-EP cells": {"test_system": "SH-EP cells", "assay": "Cell cycle analysis by flow cytometry (PI), SH-EP", "format": "cell-based, human", "conditions": "24 h; for Mean % G1 (± SEM) / Mean % G2 (± SEM) / Mean % S (± SEM) / percentage of cells in the S phase / percentage of cells in G1: SH-EP, 15 μM; for percentage of cells in the S phase: untreated 30.9 ± 2.1; for percentage of cells in G1: untreated 42.6 ± 2.4", "description": "(§1) To evaluate cell cycle, cells (1 × 10^6) were plated and maintained in respective media with reduced FBS (4%) for cell synchronization. […] Cells were washed with phosphate-buffered saline (PBS) and fixed at 4 °C for 30 min with 100% ethanol. Following a second PBS wash, cells were stained with propidium iodide (PI, Invitrogen, Waltham, MA, USA), RNAse A (0.1 mg/mL, Qiagen, Germantown, MD, USA), and 0.1% TritonX (Active Motif, Carlsbad, CA, USA), and FACSCalibur^TM Flow Cytometer (BD Biosciences, Franklin Lakes, NJ, USA) was used for examination. FlowJo software (FlowJo, LLC, Ashland, OR, USA) was used for data analysis. Data reported as mean percentage cells in phase ± SEM."}, "WAC2 cells": {"test_system": "WAC2 cells", "assay": "Cell cycle analysis by flow cytometry (PI), WAC2", "format": "cell-based, human", "conditions": "WAC2, 15 μM, 24 h; for percentage of cells in the S phase: untreated 38.2 ± 1.0; for percentage of cells in G1: untreated 44.7 ± 1.6", "description": "as §1"}, "SK-N-BE(2) flank tumors": {"test_system": "SK-N-BE(2) flank tumors", "assay": "SK-N-BE(2) flank tumor growth in athymic nude mice", "format": "in vivo, mouse", "conditions": "50 mg/kg bid po", "description": "SK-N-AS (1.8 × 10^6) or SK-N-BE(2) (1.5 × 10^6) cells in 25% Matrigel™ (BD Biosciences) were injected into the right flank of 6-week-old female athymic nude mice (Fredricks, Charles River, Wilmington, MA, USA) (n = 5 for SK-N-AS vehicle treated, n = 7 for SK-N-AS 792 or 1154 treatment and all SK-N-BE(2) experimental groups). Calipers were used to measure tumors three times per week, and volumes were calculated by the formula (width^2 × length)/2, where width was the smaller measurement. After tumors reached a volume of 100 mm^3, animals were randomized to three groups to receive 100 µL of either vehicle (N,N-dimethylacetamide (DMA, 271012, Sigma Aldrich) and Kolliphor® HS 15 (Solutol, 42996, Sigma Aldrich)), 792 (50 mg/kg in DMA and Solutol), or 1154 (50 mg/kg in DMA and Solutol) twice daily by oral gavage; dosing based on previously published in vivo cancer models. Animals were weighed weekly and were humanely euthanized in their home cages with CO2 and cervical dislocation when control tumors reached 2000 mm^3; either 9 (SK-N-AS tumors) or 19 days (SK-N-BE(2) tumors) following treatment initiation, or when IACUC parameters were met. Power analysis was completed prior to the study."}, "[1]": {"test_system": "SK-N-AS, SK-N-BE(2), SH-EP, WAC2 cells", "assay": "Monolayer wound healing (scratch) migration assay", "format": "cell-based, human", "conditions": "36 h; 792 10 μM SK-N-AS, 15 μM others; 1154 10 μM SK-N-AS and SK-N-BE(2), 15 μM SH-EP and WAC2", "description": "Since the established neuroblastoma cell lines grow as adherent cells, migration in SK-N-AS, SK-N-BE(2), SH-EP, and WAC2 cells was examined using monolayer wound healing (scratch) assay. […] Once cells reached 80% confluence, a sterile 200 μL pipette tip was used to make a standard scratch in the cell layer. Photographs of the plates were obtained at 0, 12, 24, and 36 h. ImageJ MRI Wound Healing Tool (http://imagej.nih.gov/ij/ (accessed on 14 October 2019) quantified the open wound area, and data reported as fold change of the open area ± SEM. Invasion was evaluated with a modified Boyden chamber technique. The insert bottoms were coated with collagen type I (10 µg/mL, MP Biomedicals, Santa Ana, CA, USA). The insert tops were coated with a layer of Matrigel^TM (1 mg/mL, 50 μL, BD Biosciences). Cells were treated for 24 h with 792 (SK-N-AS 10 μM; SK-N-BE(2), SH-EP, WAC2 15 μM) or 1154 (SK-N-AS, SK-N-BE(2) 10 μM; SH-EP, WAC2 15 μM), plated (4 × 10^4 cells), and allowed to invade through the membrane for 24 h. Insert membranes were fixed using 4% paraformaldehyde, stained with 1% crystal violet for 15 min, photographed, and invasion quantified with ImageJ (http://imagej.nih.gov/ij/ (accessed on 10 September 2019)). Invasion data were reported as mean percent membrane occupied by cells ± SEM. Experiments were completed with at least three biologic replicates."}, "[2]": {"conditions": "5 min pre-incubation, read-out: IC50 at Pre-incubation time 5 min"}, "[3]": {"conditions": "30 min pre-incubation, read-out: IC50 at Pre-incubation time 30 min"}, "[4]": {"conditions": "60 min pre-incubation, read-out: IC50 at Pre-incubation time 60 min"}}, "note": "Where two headings read alike, the source gives them in different places.", "data": [{"smiles": "O=S(=O)(N[C@H]1COC[C@@H](n2c3ccc(Cl)cc3c3cc(Cl)ccc32)[C@@H]1O)c1ccc(OC(F)(F)F)cc1", "note": "[ATUX-792]", "values": [{"measurement": "IC50", "setting": "CYP-3A4; [2]", "result": "> 50", "unit": "µM"}, {"measurement": "IC50", "setting": "CYP-3A4; [3]", "result": "> 50", "unit": "µM"}, {"measurement": "IC50", "setting": "CYP-3A4; [4]", "result": "> 50", "unit": "µM"}, {"measurement": "CYP-3A4 inhibition", "setting": "CYP-3A4; time-dependent inhibition assay", "result": "no CYP-3A4 inhibition"}, {"measurement": "IC50", "setting": "SK-N-BE(2) cells", "result": 17.2, "unit": "µM"}, {"measurement": "percent of cells in subG1", "setting": "SH-EP cells; SH-EP cells", "result": "significant increase in the percent of cells in subG1"}, {"measurement": "Mean % G1 (± SEM)", "setting": "SH-EP cells", "result": "58.4 (± 2.3) %"}, {"measurement": "Mean % G2 (± SEM)", "setting": "SH-EP cells", "result": "12.1 (± 2.6) %"}, {"measurement": "Mean % S (± SEM)", "setting": "SH-EP cells", "result": "21.0 (± 1.4) %"}, {"measurement": "percentage of cells in the S phase", "setting": "SH-EP cells", "result": "21 ± 1.4", "unit": "%"}, {"measurement": "percentage of cells in G1", "setting": "SH-EP cells", "result": "58.4 ± 2.3", "unit": "%"}, {"measurement": "Mean % G1 (± SEM)", "setting": "WAC2 cells", "result": "54.5 (± 2.3) %"}, {"measurement": "Mean % G2 (± SEM)", "setting": "WAC2 cells", "result": "14.3 (± 1.1) %"}, {"measurement": "Mean % S (± SEM)", "setting": "WAC2 cells", "result": "25.4 (± 2.5) %"}, {"measurement": "percentage of cells in the S phase", "setting": "WAC2 cells", "result": "25.4 ± 2.5", "unit": "%"}, {"measurement": "percentage of cells in G1", "setting": "WAC2 cells", "result": "54.5 ± 2.3", "unit": "%"}, {"measurement": "tumor volume", "setting": "SK-N-BE(2) flank tumors; after 17 days, vehicle 2362 ± 53", "result": "1383 ± 243", "unit": "mm^3"}, {"measurement": "Migration (fold change of open wound area)", "setting": "[1]", "result": "significantly decreased"}]}, {"smiles": "O=S(=O)(NC1CCCC(N2c3ccccc3CCc3ccccc32)C1O)c1ccc(OC(F)(F)F)cc1", "note": "(centres unmarked) [DBK-1154]", "values": [{"measurement": "IC50", "setting": "CYP-3A4; [2]", "result": 42, "unit": "µM"}, {"measurement": "IC50", "setting": "CYP-3A4; [3]", "result": 27, "unit": "µM"}, {"measurement": "IC50", "setting": "CYP-3A4; [4]", "result": 18, "unit": "µM"}, {"measurement": "IC50 shift", "setting": "CYP-3A4; human, human liver microsomes, probe midazolam (2.5 µM), ratio IC50 5 min / 60 min pre-incubation", "result": 2.4}, {"measurement": "IC50", "setting": "SK-N-BE(2) cells", "result": 23.8, "unit": "µM"}, {"measurement": "Mean % G1 (± SEM)", "setting": "SH-EP cells", "result": "52.0 (± 2.2) %"}, {"measurement": "Mean % G2 (± SEM)", "setting": "SH-EP cells", "result": "14.6 (± 4.9) %"}, {"measurement": "Mean % S (± SEM)", "setting": "SH-EP cells", "result": "26.3 (± 2.0) %"}, {"measurement": "percentage of cells in the S phase", "setting": "SH-EP cells", "result": "26.3 ± 2", "unit": "%"}, {"measurement": "percentage of cells in G1", "setting": "SH-EP cells", "result": "52 ± 2.2", "unit": "%"}, {"measurement": "Mean % G1 (± SEM)", "setting": "WAC2 cells", "result": "49.6 (± 2.4) %"}, {"measurement": "Mean % G2 (± SEM)", "setting": "WAC2 cells", "result": "19.0 (± 1.5) %"}, {"measurement": "Mean % S (± SEM)", "setting": "WAC2 cells", "result": "28.4 (± 1.6) %"}, {"measurement": "percentage of cells in the S phase", "setting": "WAC2 cells", "result": "28.4 ± 1.6", "unit": "%"}, {"measurement": "percentage of cells in G1", "setting": "WAC2 cells", "result": "49.6 ± 2.4", "unit": "%"}, {"measurement": "tumor volume", "setting": "SK-N-BE(2) flank tumors; by day 19, vehicle 2362 ± 53", "result": "1628 ± 362", "unit": "mm^3"}, {"measurement": "Migration (fold change of open wound area)", "setting": "[1]", "result": "significantly decreased"}]}]}
